According to patent US20250026741A1, “INHIBITORS OF THE ONCOGENIC SHP2 PHOSPHATASE AND USES THEREOF” (Sanford Burnham Prebys Medical Discovery Institute, priority 2021, published 2025):
pIC50: −log10 of the molar value.

Assays:
[1] = tested on: TNBC cells (BT-549 and MDA-MB-468); test: 11-day colony formation assay; type: cell-based; conditions: 5, 10, or 20 μM, 11 days
Method: Next, we performed an 11-day colony formation assay with TNBC cells treated with #02 or SHP099 at 5, 10, or 20 μM (FIG. 3D).
MDA-MB-468 and […] triple-negative breast cancer cells were maintained in DMEM+10% FBS supplemented with 1× Penicillin-Streptomycin/L-Glutamine (Omega Scientific). 1.5K cells (in […]) were seeded per well of a standard 24-well tissue culture plate (Falcon) and allowed to adhere for 24 h, before the addition of drug(s) as described. After a further 96 h, media was replaced with fresh media containing the same test compounds and concentrations. After 11 days, media was removed and cells stained with 0.5% Crystal Violet (in 20% methanol) for 20 min with agitation @ 80 rpm. Stain was removed and plates with stained cells were washed by being submerged in excess deionized water and allowed to air dry overnight before imaging.

[2] = target: SHP2cat (Homo sapiens (Human), UniProt Q06124); test: Mass spectrometry test for inhibitor:protein adducts; conditions: SHP2cat 5 μM, inhibitor 100 μM, 1, 5, 20, 60 min, trypsin proteolysis, MS
Method: Additionally, we used mass spectrometry to test whether inhibitor: protein adducts are formed. Specifically, we incubated SHP2cat (5 μM) with #02 (100 μM) in assay buffer for various times (1, 5, 20, and 60 min) before trypsin proteolysis and subsequent mass spectrometry analysis.

[3] = tested on: MOLM-13-Cas9-mCherry cells with SHP2 KO; test: SHP2 CRISPR-Cas9 knockout inhibitor selectivity assay (cell viability); type: cell-based; conditions: MOLM-13-Cas9-mCherry SHP2 KO cells, 72 h
Method: Finally, we evaluated the selectivity of our top two compounds, #01 and #02, on MOLM-13 AML cells in which SHP2 was depleted using CRISPR-Cas9 knock-out (KO). High-efficiency Cas9-editing MOLM-13 cells were generated by transducingMOLM-13 cells with a Cas9 lentiviral construct. Stable clones were tested for editing efficiency by performing TIDE analysis (45), and these MOLM13-Cas9 cells were transduced with a lentiviral construct containing an AAVS1 single guide RNA (sgRNA) and an mCherry reporter for bulk-sorting of cells with successful AAVS1 editing. SHP2 KO was achieved by transducing MOLM-13-Cas9-mCherry cells with a lentivirus containing SHP2 dual sgRNAs, resulting in ˜80% reduction of SHP2 protein levels (FIG. 3G). #01, #02, and the SHP2 allosteric inhibitor SHP099 were tested in parallel on regular MOLM-13 cells (expressing WT SHP2) and MOLM-13-Cas9-mCherry cells with SHP2 KO. Cells were treated with inhibitors at various concentrations (ranging from […] to 58 nM) or vehicle control (DMSO) for 72 h, before cell viability was assessed.
High-efficiency Cas9-editing MOLM-13 cells were generated by transducing MOLM-13 cells with the pLenti-Cas9-blasticidin construct (Addgene plasmid #52962) and selecting single stable clones using flow-sorting. Clones were then tested for editing efficiency by performing TIDE analysis (45). These MOLM13-Cas9 cells were then transduced with a lentiviral construct containing an AAVS sgRNA and an mCherry reporter out of frame and downstream of an AAVS sgRNA targeting site. […]
For SHP2 KO, dual sgRNAs targeting SHP2 were cloned in the pLentiGuide puro vector (Addgene plasmid #52963) using a published protocol (50). […] SHP2 KO was evaluated by immunoblotting. […] For SHP2 KO, MOLM-13-Cas9-mCherry cells were seeded in nontreated 6-well-plates ([…] in 2.5 mL), with cell numbers determined by trypan blue using the Countess Cell counter (Thermo Scientific). […] Cell viability was assessed using the ATP-depletion assay CellTiter-Glo® (Promega) as described above, and data were analyzed using GraphPad Prism software.

[4] = tested on: MLL-AF10 leukemia cells expressing wild-type SHP2; test: Cell viability assay, MLL-AF10 cells expressing wild-type SHP2; type: cell-based, mouse; conditions: Mus musculus
Method: Cell viability assays of SHP099, #01, and #02 against mouse MLL-AF10 leukemia cells were conducted. Two MLL-AF10 cell lines were employed, one expressing wild-type SHP2, and the other expressing E76K mutant SHP2.

[5] = target: SHP2-E76K (Homo sapiens (Human), UniProt Q06124, E76K); test: Time-dependent inhibition (preincubation) assay; type: biochemical; conditions: preincubation 1, 5, 10, 20, or 60 min with SHP2-E76K
Method: PTPs contain a highly nucleophilic cysteine that is essential for catalytic activity, but is susceptible to oxidation and covalent modifications which abrogate its nucleophilic function and phosphatase activity. Because the methylenebenzothiophenone moiety of our inhibitors could potentially act as a Michael acceptor and thus covalently bind to the catalytic cysteine, we tested whether the observed inhibition of SHP2 was dependent on the preincubation time of inhibitor and enzyme. An irreversible covalent inhibitor may show time-dependent inhibition, with increased potency at longer incubation times. Conversely, the potency of a non-covalent inhibitor is expected to be insensitive to the time it is incubated with the enzyme. To test for time-dependent inhibition, #01 (#01) at 10 different concentrations was preincubated with SHP2-E76K for 1, 5, 10, 20, or 60 min, before the DiFMUP substrate was added to the reaction mixture and initial rates were recorded (FIG. 2C).

Chain of SHP2cat (Q06124 248-527): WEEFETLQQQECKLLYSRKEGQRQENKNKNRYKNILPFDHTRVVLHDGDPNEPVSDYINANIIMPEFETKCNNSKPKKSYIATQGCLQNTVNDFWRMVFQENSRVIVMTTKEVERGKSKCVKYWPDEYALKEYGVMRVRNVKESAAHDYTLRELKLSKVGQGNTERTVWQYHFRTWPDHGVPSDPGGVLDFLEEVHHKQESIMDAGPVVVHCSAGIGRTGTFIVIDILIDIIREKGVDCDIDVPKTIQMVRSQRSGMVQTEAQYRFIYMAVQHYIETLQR
Chain of SHP2-E76K (Q06124 whole entry E76K): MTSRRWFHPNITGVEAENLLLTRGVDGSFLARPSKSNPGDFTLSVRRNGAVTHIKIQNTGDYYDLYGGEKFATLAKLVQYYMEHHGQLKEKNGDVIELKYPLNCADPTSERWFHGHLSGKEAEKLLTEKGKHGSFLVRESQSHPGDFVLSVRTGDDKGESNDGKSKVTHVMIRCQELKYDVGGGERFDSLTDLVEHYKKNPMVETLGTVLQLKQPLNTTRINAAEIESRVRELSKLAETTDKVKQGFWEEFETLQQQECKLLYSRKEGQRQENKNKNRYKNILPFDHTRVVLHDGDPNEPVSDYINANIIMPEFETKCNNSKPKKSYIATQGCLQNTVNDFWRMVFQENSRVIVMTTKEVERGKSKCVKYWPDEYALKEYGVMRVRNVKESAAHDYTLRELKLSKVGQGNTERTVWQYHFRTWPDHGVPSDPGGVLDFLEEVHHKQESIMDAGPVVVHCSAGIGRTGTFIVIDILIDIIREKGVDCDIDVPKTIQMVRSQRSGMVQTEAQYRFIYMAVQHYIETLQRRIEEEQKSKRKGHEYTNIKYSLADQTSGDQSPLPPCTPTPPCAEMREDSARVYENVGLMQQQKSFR

pIC50 [4]	time dependence of inhibition [5]	Compound	effect on colony formation [1]	inhibitor:protein adduct formation [2]	effect on viability of SHP2 KO cells [3]
5.70		O=C(Nc1ccccc1)c1cc(-c2ccc(/C=C3\Sc4ccccc4C3=O)o2)ccc1O [#02, (Z)-2-hydroxy-5-(5-((3-oxobenzo[b]thiophen-2(3H)-ylidene)methyl)furan-2-yl)-N-phenylbenzamide]	colonies were undetectable	no adduct formation with the inhibitor was found	either no effect, or a greatly reduced effect
6.04	not time-dependent	Nc1ccc(NC(=O)c2cc(-c3ccc(/C=C4\Sc5ccccc5C4=O)o3)ccc2O)cc1 [#01, (Z)—N-(4-Aminophenyl)-2-hydroxy-5-(5-((3-oxobenzo[b]thiophen-2(3H)-ylidene)methyl)furan-2-yl)benzamide]			either no effect, or a greatly reduced effect
